± gives the expanded uncertainty stated by the source.
Test: xn = mol fraction of the nth substance listed
Details: 101 kPa, Liquid; for viscosity: Concentric cylinders viscometry

C1CCCCC1 [cyclohexane] + Cc1ccccc1
Details	mass density, 283.15 K [kg/m3]	mass density, 293.15 K [kg/m3]	mass density, 303.15 K [kg/m3]	mass density, 313.15 K [kg/m3]	mass density, 323.15 K [kg/m3]	viscosity, 283.15 K [mPa·s]	viscosity, 293.15 K [mPa·s]	viscosity, 303.15 K [mPa·s]	viscosity, 313.15 K [mPa·s]	viscosity, 323.15 K [mPa·s]
x1 = 0.0958	866.15 ± 0.65	856.9 ± 0.67	847.5 ± 0.69	838.15 ± 0.71	828.65 ± 0.72	0.6712 ± 0.0084	0.5995 ± 0.008	0.5395 ± 0.0076	0.4879 ± 0.0074	0.4428 ± 0.0071
x1 = 0.196	855.85 ± 0.67	846.6 ± 0.69	837.2 ± 0.71	827.8 ± 0.73	818.35 ± 0.75	0.6623 ± 0.0083	0.5908 ± 0.0079	0.5306 ± 0.0076	0.4776 ± 0.0073	0.431 ± 0.0071
x1 = 0.2986	846 ± 0.69	836.7 ± 0.71	827.3 ± 0.73	817.9 ± 0.75	808.45 ± 0.77	0.6792 ± 0.0084	0.6051 ± 0.008	0.543 ± 0.0077	0.487 ± 0.0074	0.4426 ± 0.0071
x1 = 0.3988	836.5 ± 0.71	827.2 ± 0.73	817.8 ± 0.75	808.4 ± 0.77	798.9 ± 0.78	0.6948 ± 0.0085	0.6171 ± 0.0081	0.5524 ± 0.0077	0.4971 ± 0.0074	0.4491 ± 0.0072
x1 = 0.4974	827.65 ± 0.73	818.35 ± 0.75	808.9 ± 0.76	799.45 ± 0.78	789.95 ± 0.8	0.7218 ± 0.0087	0.6378 ± 0.0082	0.5683 ± 0.0078	0.5095 ± 0.0075	0.4589 ± 0.0072
x1 = 0.5989	818.8 ± 0.74	809.4 ± 0.76	800 ± 0.78	790.5 ± 0.8	781 ± 0.82	0.7635 ± 0.0089	0.67 ± 0.0084	0.5935 ± 0.008	0.5294 ± 0.0076	0.4735 ± 0.0073
x1 = 0.6977	810.1 ± 0.76	800.7 ± 0.78	791.3 ± 0.8	781.8 ± 0.82	772.25 ± 0.84	0.8203 ± 0.0092	0.7137 ± 0.0086	0.6274 ± 0.0081	0.5553 ± 0.0077	0.4886 ± 0.0074
x1 = 0.7998	802.5 ± 0.78	793.1 ± 0.8	783.65 ± 0.82	774.15 ± 0.83	764.5 ± 0.85	0.9103 ± 0.0098	0.7838 ± 0.009	0.6824 ± 0.0085	0.5987 ± 0.008	0.5292 ± 0.0076
x1 = 0.8994	794.8 ± 0.79	785.5 ± 0.81	776.1 ± 0.83	766.5 ± 0.85	756.9 ± 0.87	0.9994 ± 0.01	0.8472 ± 0.0094	0.7271 ± 0.0087	0.6373 ± 0.0082	0.5583 ± 0.0078
x1 = 1	787.95 ± 0.81	778.7 ± 0.83	769.2 ± 0.84	759.65 ± 0.86	749.9 ± 0.88	1.18 ± 0.011	0.9847 ± 0.01	0.8295 ± 0.0093	0.7061 ± 0.0086	0.5978 ± 0.008
